Experimental data: patent US5157020A, “Synthetic senescent cell antigen” (Research Corporation Tech., Inc., priority 1990, dated 1992)
“Also recorded” adds a separate entry of the source. Where a SMILES comes first, the peptide text is derived from it.

Tests used:
[1] = Solubility of peptides in physiologic solutions; format: physicochemical; details: even when coupled to BSA
Description: Peptides. Peptides were prepared by solid phase synthesis using an Applied Biosystems 430A automatic peptide synthesizer. They were analyzed by amino acid analysis, HPLC, sequencing, and/or FABS to determine purity. Amino acids are referred to by the standard single letter code. Peptides that are not soluble in phosphate buffered saline were dissolved in 1-2% NaDodSO4. Others were solubilized in acetic acid or trifluoroacetic acid, and sodium dodecyl sulfate (1-2%) is added. Once the peptides were in solution, they were conjugated to ovalbumin (5X crystallized) or BSA with 0.02% glutaraldehyde (32). The reaction was allowed to proceed for 30-60 min. blocked with ethanolamine, and the conjugate dialysed against PBS in tubing with a molecular weight cut off of ≤1000.

senescent cell IgG [2] = experiment: IgG binding and inhibition assay (competitive inhibition of senescent cell IgG binding to stored erythrocytes, 125I-Protein A); parameters: species or system human; details: for INHIBITION (%) of senescent cell IgG binding: Table 1, peptides 300 ug, senescent cell IgG 3 ug, 90 mins at room temperature, mean ± 1 SD of quadruplicate samples; for inhibition of senescent cell IgG binding (in words): competitive inhibition assay; for INHIBITION (%) of senescent cell IgG binding to erythrocytes, before or after DIDS modification: Table 4, 30 ug, stored red cells, ± SD, unmodified ANION 1 and COOH from a separate experiment
Description: IgG binding and inhibition assay. IgG was isolated from senescent RBC from 50 liters of blood and purified with Protein A Sepharose as previously described (2, 4). IgG eluted from senescent cells (SCIgG), rather than serum IgG, was used because normal serum contains antibodies to spectrin, actin, 2.1, etc. (28). Competitive inhibition studies were performed using synthetic peptides to absorb the IgG isolated from senescent erythrocytes. Intact dimeric, senescent cell IgG containing the Fc portion binds to senescent cells in situ and initiates their removal (1-7, 30). Fab fragments were not used because we were simulating the physiological situation. IgG isolated from aged erythrocytes binds specifically to senescent cells. […] Moreover, the specific binding capacity of the autoantibody was eliminated by absorption with purified senescent cell antigen (SCA; 7). […] Storage mimics normal aging in situ immunologically and biochemically (1-7, 30). The number of red cell-bound IgG molecules was quantitated before and after absorption using equilibrium binding kinetics (7, 30, 31). Details of the methods are given elsewhere (27). Percent inhibition was calculated from the following formula: 100[1-(x-b/T-b)] where x=molecules of IgG autoantibody bound per cell; T=total number of IgG antibody molecules bound in the absence of inhibitor; b=background Protein A binding.
Competitive inhibition studies were performed using synthetic peptides to absorb the IgG isolated from senescent erythrocytes. IgG binding and inhibition were determined with a protein A binding assay. This biological assay measures the fate of erythrocytes in vitro and in vivo (1, 2, 4).
IgG binding and inhibition assay. Competitive inhibition studies were performed using synthetic peptides to absorb the IgG isolated from senescent erythrocytes. This is the same IgG that initiates phagocytosis in situ. The Fc portion IgG is required for binding and phagocytosis of cells by macrophages (3, 2, 4, 7, 29). Fab fragments were not used because we were simulating the physiological situation. Intact dimeric, senescent cell IgG containing the Fc portion binds to senescent cells in situ and initiates their removal (3, 32, 2, 4, 6, 17, 7). Only IgG isolated from aged erythrocytes binds specifically to senescent cells. […] Moreover, the specific binding capacity of the autoantibody was eliminated by absorption with purified senescent cell antigen (39). […] Storage mimics normal aging in situ immunologically and biochemically (32, 2, 4, 6, 29, 7). After incubation with absorbed IgG, cells were washed four times with 40-50 volumes of phosphate buffered saline containing 0.2% bovine serum albumin (BSA, fraction V, Sigma, St. Louis, Mo.) and 0.5% glucose. Washed cells were transferred to BSA-coated tubes (5×10^7 cells/50 ul) and incubated for 30 min. at 37° C. with ^125 I-Protein A (Amersham, Arlington Heights, Ill. 30-38 mCi/mg, 10-15 ng/tube). Cells were then washed four times and transferred to new tubes before counting in a gamma scintillation counter (Beckman, Gamma 5,500). The number of red cell-bound IgG molecules was quantitated before and after absorption using equilibrium binding kinetics (7).
Scatchard analysis was performed. Scathard, NY Acad. Sci. 51:660-672 (1949), incorporated herein by reference. Percent inhibition was calculated from the following formula: 100[1-(x-b/T-b)] where x=molecules of IgG autoantibody bound per cell; T=total number of IgG antibody molecules bound in the absence of inhibitor; b=background Protein A binding.

[3] = system: erythrocyte anion transport; experiment: Peptide inhibition of sulfate influx (anion transport) in erythrocytes; format: cell-based, human; details: for inhibition of anion transport (in words): equimolar amounts of peptide and sulfate
Description: Anion transport and DIDS inhibition measurements. Sulfate exchange is inhibited by […]. Stilbenedisulfonate derivatives such as DIDS inhibit anion transport by binding to at least two lysine residues in the membrane-spanning region of band 3 (45, 23, 35).
Peptide inhibition of sulfate "influx" experiments were performed essentially according to method of Jennings (46) using 300 mM sucrose, 10 mM Tris-HEPES, pH 7.0, as the "influx" buffer (47). Washed cells were incubated in 20-30 volumes of 110 mM K2 SO4 for 10 min at 37° C. to replace intracellular chloride. The cells were centrifuged and the supernatant removed and replaced with 110 mM K2 SO4 for 10 min. This was repeated 3 times. After the last centrifugation, cells were resuspended 300 mM sucrose, 10 mM Tris-HEPES, pH 7.0, and washed once. Cells were suspended to 2×10^8 cells/ml in 2 ml influx buffer at 37° C. Radioactive sulfate (0.01 mM) was added (582 mCi/mM) at suitable time intervals. Samples were taken and added to 18 volumes of ice cold 1.15% KCl (154 mM KCl) buffered to pH 7.4 with MOPS ("wash buffer"). The high chloride concentration, temperature, and pH all inhibit sulfate transport. Cells were washed twice to remove external sulfate at 0° C. with wash buffer. All samples were deproteinized with trichloracetic acid (final concentration 6.7%) and counted with Ready-Solv HP/6 (Beckman, Fullerton, Calif.) in a liquid scintillation counter. For peptide inhibition of sulfate transport, 0.01 mM of peptide(s) were added to the radioactive sulfate prior to addition to cells suspended in influx buffer.

senescent cell IgG [4] = experiment: Immunoblotting of synthetic peptides with IgG autoantibody from senescent erythrocytes; format: binding, human; details: autoradiograph of immunoblot, FIG. 4
Description: Sodium dodecyl sulfate (NaDodSO4) polyacrylamide gel electrophoresis and immunostaining of peptides. Peptides were analyzed on 6-25% or 12-25% linear gels (6, 7, 27-29). Immunoautoradiography was performed by immunoblotting as described previously (6, 7, 28-30). Immunoblots were exposed to Kodak Ortho G (OG-1) film at -70° C. using our standard procedures (30, 45).
We used immunoblotting of the peptides followed by reaction with IgG eluted from senescent red cells (SCIgG) to localize the aging antigen site (FIG. 4A and B). We also used the IgG binding and inhibition assay at a singe concentration of peptide and performed Scatchard analysis (Table 2). […] Peptides that were negative by immunoblotting were also negative in the inhibition assay (FIG. 4 and Table 2).

[5] = at concentrations up to / as high as 100 ug
[6] = equimolar peptide and sulfate (0.01 mM)

solubility [1]	Compound	INHIBITION (%) of senescent cell IgG binding (senescent cell IgG [2]) [%]	inhibition of senescent cell IgG binding (in words) (senescent cell IgG [2])	inhibition of anion transport (in words) [3]	binding of senescent cell IgG to peptide in immunoblots (senescent cell IgG [4])	also measured
not completely soluble	CC[C@H](C)[C@H](NC(=O)CNC(=O)[C@H](Cc1ccccc1)NC(=O)[C@H](CC(C)C)NC(=O)[C@@H](NC(=O)[C@H](C)NC(=O)[C@H](CC(C)C)NC(=O)[C@@H]1CCCN1C(=O)[C@@H](NC(=O)[C@H](CCCNC(=N)N)NC(=O)[C@H](CO)NC(=O)[C@H](CC(C)C)NC(=O)[C@@H](NC(=O)[C@@H]1CCCN1C(=O)[C@H](CCC(=O)O)NC(=O)[C@@H](N)CCSC)[C@@H](C)CC)[C@@H](C)CC)C(C)C)C(=O)N[C@@H](Cc1ccccc1)C(=O)N[C@@H](CC(C)C)C(=O)O [776-793, MEPILSRIPLAVLFGIFL] (H-MEPILSRIPLAVLFGIFL-OH)	–	–	–	–	–
not completely soluble	CC[C@H](C)[C@H](NC(=O)CNC(=O)[C@H](CO)NC(=O)[C@H](CC(C)C)NC(=O)[C@H](CO)NC(=O)[C@@H](NC(=O)[C@@H](NC(=O)CNC(=O)[C@H](CCSC)NC(=O)[C@H](Cc1ccc(O)cc1)NC(=O)[C@H](CC(C)C)NC(=O)[C@H](Cc1ccccc1)NC(=O)[C@@H](NC(=O)CNC(=O)[C@@H](N)Cc1ccccc1)[C@@H](C)CC)C(C)C)[C@@H](C)O)C(=O)N[C@@H](CCC(N)=O)C(=O)N[C@@H](CC(C)C)C(=O)O [789-805, FGIFLYMGVTSLSGIQL] (H-FGIFLYMGVTSLSGIQL-OH)	–	–	–	–	–
not completely soluble	CC[C@H](C)[C@H](NC(=O)CNC(=O)[C@H](CO)NC(=O)[C@@H](N)CC(C)C)C(=O)N[C@@H](CCC(N)=O)C(=O)N[C@@H](CC(C)C)C(=O)N[C@@H](Cc1ccccc1)C(=O)N[C@@H](CC(=O)O)C(=O)N[C@@H](CCCNC(=N)N)C(=O)N[C@H](C(=O)N[C@@H](CC(C)C)C(=O)N[C@@H](CC(C)C)C(=O)N[C@@H](CC(C)C)C(=O)N[C@@H](Cc1ccccc1)C(=O)N[C@@H](CCCCN)C(=O)N1CCC[C@H]1C(=O)N1CCC[C@H]1C(=O)N[C@@H](CCCCN)C(=O)N[C@@H](Cc1ccc(O)cc1)C(=O)O)[C@@H](C)CC [800-818, LSGIQLFDRILLLFKPPKY] (H-LSGIQLFDRILLLFKPPKY-OH)	–	–	–	–	–
–	AGVANQLLDRFIFEDQ [CYTO, reference compound]	0	does not inhibit	–	–	–
–	FKPPKY (UniProt P02730 813-818, looked up, fragment) [N6]	–	–	potent inhibitors of anion transport	–	inhibition of senescent cell IgG binding (senescent cell IgG [2]; at 10 ug): 48±1%; inhibition of senescent cell IgG binding (senescent cell IgG [2]; at 10 ug, listed as COOH hexamer (N6)): ~ 50%
–	LFKPPKYHPDVPYVKR [COOH]	99 ± 1	inhibitory over a range of 3 to 100 ug	potent inhibitors of anion transport	binding	INHIBITION (%) of senescent cell IgG binding to erythrocytes, before or after DIDS modification (senescent cell IgG [2]): 20 ± 1%; inhibition of senescent cell IgG binding (senescent cell IgG [2]; [5]): ≤ 50%; inhibition of anion transport ([3]; at 5 min, FIG. 7, compared to control without peptide): 52±3%
–	LRKFKNSSYFPGKLR [ANION 2]	30 ± 12	only slightly inhibitory; also recorded: only weakly inhibitory	–	bound	inhibition of anion transport [3, 6]: 38±4%
–	QKLSVPDGFKVSNSSARGW [GLYCOS]	–	only weakly inhibitory	–	Binding of antibody	INHIBITION (%) of senescent cell IgG binding to erythrocytes (senescent cell IgG [2]; Table 2, all peptides tested at 30 ug, ± standard deviation): 9 ± 0%
–	SKLIKIFQDHPLQKTYN [ANION 1]	88 ± 7	inhibitory over a range of 3 to 100 ug	does not inhibit anion transport	trace binding	INHIBITION (%) of senescent cell IgG binding to erythrocytes, before or after DIDS modification (senescent cell IgG [2]): 32 ± 2%; inhibition of senescent cell IgG binding (senescent cell IgG [2]; [5]): ≤ 50%; inhibition of anion transport [3, 6]: 8±7%
–	YHPDVPYVKR [818-827]	–	–	–	–	percent inhibition of senescent cell IgG binding (senescent cell IgG [2]; FIG. 2 legend, 12.2 ug): 54±7; inhibition of senescent cell IgG binding (senescent cell IgG [2]; at 30 ug): 54±3%
